This is an account of results in patent publication US20170298052A1, “SUBSTITUTED OXOPYRIDINE DERIVATIVES” (BAYER PHARMA AKTIENGESELLSCHAFT, priority 2014, published 2017).

The target of one experiment is human plasma kallikrein (Homo sapiens, UniProt P03952). Nature of the experiment: Determination of the plasma kallikrein activity (fluorogenic peptide substrate, AMC cleavage). The class given is biochemical. The following applies: plasma kallikrein from Kordia 0.6 nM; substrate H-Pro-Phe-Arg-AMC; 30 min at 22° C.; read-out: IC50 [nM] (Table B, plasma kallikrein inhibition). As for the experimental part:
To determine the plasma kallikrein inhibition of the substances according to the invention, a biochemical test system is used which utilizes the reaction of a peptidic plasma kallikrein substrate to determine the enzymatic activity of human plasma kallikrein. Here, plasma kallikrein cleaves from the peptic plasma kallikrein substrate the C-terminal aminomethylcoumarin (AMC), the fluorescence of which is measured. The determinations are carried out in microtitre plates.
Test substances are dissolved in dimethyl sulphoxide and serially diluted in dimethyl sulphoxide (3000 μM to 0.0078 μM; resulting final concentrations in the test: 50 μM to 0.00013 μM). 1 μl of the diluted substance solutions is placed into each of the wells of white microtitre plates from Greiner (384 wells). 20 μl of assay buffer (50 mM Tris/HCl pH 7.4; 100 mM sodium chloride solution; 5 mM of calcium chloride solution; 0.1% of bovine serum albumin) and 20 μl of plasma kallikrein from Kordia (0.6 nM in assay buffer) are then added successively. After 15 min of incubation, the enzyme reaction is started by addition of 20 μl of the substrate H-Pro-Phe-Arg-AMC dissolved in assay buffer (10 μM in assay buffer) from Bachem, the mixture is incubated at room temperature (22° C.) for 30 min and fluorescence is then measured (excitation: 360 nm, emission: 460 nm). The measured emissions of the test batches with test substance are compared to those of control batches without test substance (only dimethyl sulphoxide instead of test substance in dimethyl sulphoxide), and IC50 values are calculated from the concentration/activity relationships.

In the next experiment the target is T1, human factor XIa (Homo sapiens, UniProt P03951).
T1 construct: purchased Kordia
T1 sequence (P03951 388-625 limits assumed): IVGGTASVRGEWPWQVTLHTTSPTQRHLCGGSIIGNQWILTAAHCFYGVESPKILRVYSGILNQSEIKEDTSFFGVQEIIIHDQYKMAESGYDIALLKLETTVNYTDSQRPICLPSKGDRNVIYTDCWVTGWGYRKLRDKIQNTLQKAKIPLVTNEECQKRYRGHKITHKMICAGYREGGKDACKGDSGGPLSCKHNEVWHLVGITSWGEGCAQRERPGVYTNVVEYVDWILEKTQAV
T1 sequence (P03951 19-387 partner limits assumed): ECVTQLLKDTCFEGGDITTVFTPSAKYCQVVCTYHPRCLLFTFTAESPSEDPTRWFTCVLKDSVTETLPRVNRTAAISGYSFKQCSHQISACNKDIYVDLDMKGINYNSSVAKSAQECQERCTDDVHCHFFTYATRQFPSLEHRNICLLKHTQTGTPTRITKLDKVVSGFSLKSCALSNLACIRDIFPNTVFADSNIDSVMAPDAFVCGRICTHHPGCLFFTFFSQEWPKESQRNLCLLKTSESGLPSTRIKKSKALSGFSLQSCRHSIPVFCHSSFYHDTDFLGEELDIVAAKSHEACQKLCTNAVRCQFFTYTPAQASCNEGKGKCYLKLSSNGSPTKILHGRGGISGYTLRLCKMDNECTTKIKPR
Nature of the experiment: Measurement of FXIa inhibition (fluorogenic peptide substrate, AMC cleavage). The class given is biochemical. As to conditions: factor XIa from Kordia 0.45 nM; substrate Boc-Glu(OBzl)-Ala-Arg-AMC; 30 min at 22° C. As for the experimental part: The factor XIa inhibition of the substances according to the invention is determined using a biochemical test system which utilizes the reaction of a peptidic factor XIa substrate to determine the enzymatic activity of human factor XIa. Here, factor XIa cleaves from the peptic factor XIa substrate the C-terminal aminomethylcoumarin (AMC), the fluorescence of which is measured. The determinations are carried out in microtitre plates.
1 μl of the diluted substance solutions is placed into each of the wells of white microtitre plates from Greiner (384 wells). […] After 15 min of incubation, the enzyme reaction is started by addition of 20 μl of the factor XIa substrate Boc-Glu(OBzl)-Ala-Arg-AMC dissolved in assay buffer (10 μM in assay buffer) from Bachem, the mixture is incubated at room temperature (22° C.) for 30 min and fluorescence is then measured (excitation: 360 nm, emission: 460 nm). The measured emissions of the test batches with test substance are compared to those of control batches without test substance (only dimethyl sulphoxide instead of test substance in dimethyl sulphoxide), and IC50 values are calculated from the concentration/activity relationships.

human plasma kallikrein, sequence (P03952 391-638 limits assumed): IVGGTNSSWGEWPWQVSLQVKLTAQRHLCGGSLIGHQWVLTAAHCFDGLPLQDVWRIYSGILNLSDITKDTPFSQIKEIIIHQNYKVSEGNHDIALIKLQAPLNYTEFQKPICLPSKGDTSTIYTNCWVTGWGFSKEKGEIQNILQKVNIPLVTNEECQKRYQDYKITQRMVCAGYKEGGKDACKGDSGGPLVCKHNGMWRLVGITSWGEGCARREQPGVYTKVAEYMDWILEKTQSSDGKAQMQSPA
human plasma kallikrein, sequence (P03952 20-390 partner limits assumed): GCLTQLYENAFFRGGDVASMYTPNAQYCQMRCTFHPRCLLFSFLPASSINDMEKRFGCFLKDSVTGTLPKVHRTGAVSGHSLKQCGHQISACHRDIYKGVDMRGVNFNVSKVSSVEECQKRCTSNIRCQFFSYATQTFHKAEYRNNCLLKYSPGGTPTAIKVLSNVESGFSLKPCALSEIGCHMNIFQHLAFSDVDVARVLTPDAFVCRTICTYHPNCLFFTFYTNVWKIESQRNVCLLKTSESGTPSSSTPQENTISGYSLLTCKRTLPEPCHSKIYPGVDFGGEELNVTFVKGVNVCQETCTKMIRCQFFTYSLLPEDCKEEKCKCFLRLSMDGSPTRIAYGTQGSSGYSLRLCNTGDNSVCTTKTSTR

With `COc1cn(C(Cc2coc(C)n2)C(=O)Nc2ccc(C(N)=O)c(F)c2)c(=O)cc1-c1cc(Cl)ccc1C#N` (racemic) [Example 41, 4-({2-[4-(5-Chloro-2-cyanophenyl)-5-methoxy-2-oxopyridin-1(2H)-yl]-3-(2-methyl-1,3-oxazol-4-yl)-propanoyl}amino)-2-fluorobenzamide], the half-maximal inhibitory concentration (IC50) is 21 nM at human plasma kallikrein and 28 nM on human factor XIa.
With `COc1cn(C(CC2=NOCC2)C(=O)Nc2ccc(C(N)=O)c(F)c2)c(=O)cc1-c1cc(Cl)ccc1C#N` (racemic) [Example 42, 4-({2-[4-(5-Chloro-2-cyanophenyl)-5-methoxy-2-oxopyridin-1(2H)-yl]-3-(4,5-dihydro-1,2-oxazol-3-yl)propanoyl}amino)-2-fluorobenzamide], the IC50 on human plasma kallikrein was determined as 38 nM; at human factor XIa, 51 nM.
On the same counts, the results for `COc1cn(C(Cc2ccn(C)n2)C(=O)Nc2ccc(C(N)=O)c(F)c2)c(=O)cc1-c1cc(C)ccc1C#N` (racemic) [Example 43, 4-({2-[4-(2-Cyano-5-methylphenyl)-5-methoxy-2-oxopyridin-1(2H)-yl]-3-(1-methyl-1H-pyrazol-3-yl)propanoyl}amino)-2-fluorobenzamide] are 8.3 nM and 12 nM.
The corresponding values for `CNC(=O)c1ccc(NC(=O)C(Cc2ccn(C)n2)n2cc(OC)c(-c3cc(C)ccc3C#N)cc2=O)cc1F` (racemic) [Example 44, 4-({2-[4-(2-Cyano-5-methylphenyl)-5-methoxy-2-oxopyridin-1(2H)-yl]-3-(1-methyl-1H-pyrazol-3-yl)propanoyl}amino)-2-fluoro-N-methylbenzamide] are 12 nM and 19 nM.
On to `COc1cc(NC(=O)C(Cc2ccn(C)n2)n2cc(OC)c(-c3cc(Cl)ccc3C#N)cc2=O)ccc1C(N)=O` (racemic) [Example 46, 4-({2-[4-(5-Chloro-2-cyanophenyl)-5-methoxy-2-oxopyridin-1(2H)-yl]-3-(1-methyl-1H-pyrazol-3-yl)propanoyl}amino)-2-methoxybenzamide], for which the values for the half-inhibitory concentration (IC50) on human plasma kallikrein and on human factor XIa were 2.4 nM and 8.9 nM, respectively.
On the same counts, the results for `CNC(=O)c1ccc(NC(=O)C(Cc2coc(C)n2)n2cc(OC)c(-c3cc(Cl)ccc3C#N)cc2=O)cc1F` (racemic) [Example 47, 4-({2-[4-(5-Chloro-2-cyanophenyl)-5-methoxy-2-oxopyridin-1(2H)-yl]-3-(2-methyl-1,3-oxazol-4-yl)propanoyl}amino)-2-fluoro-N-methylbenzamide] are 24 nM and 32 nM.
With `COCCC(C(=O)Nc1ccc(C(N)=O)c(OC)c1)n1cc(OC)c(-c2cc(Cl)ccc2C#N)cc1=O` (racemic) [Example 48, 4-({2-[4-(5-Chloro-2-cyanophenyl)-5-methoxy-2-oxopyridin-1(2H)-yl]-4-methoxybutanoyl}amino)-2-methoxybenzamide], the IC50 at human plasma kallikrein is 7.7 nM; against human factor XIa, 15 nM.
Regarding `COCCC(C(=O)Nc1ccc(C(N)=O)c(F)c1)n1cc(OC)c(-c2cc(C)ccc2C#N)cc1=O` (racemic) [Example 49, 4-({2-[4-(2-Cyano-5-methylphenyl)-5-methoxy-2-oxopyridin-1(2H)-yl]-4-methoxybutanoyl}amino)-2-fluorobenzamide], the IC50 at human plasma kallikrein came to 27 nM; against human factor XIa, 28 nM.
As for `COCCC(C(=O)Nc1ccc(C(N)=O)c(F)c1)n1cc(OC)c(-c2cc(C)ccc2C#N)cc1=O` (single isomer, unassigned) [Example 24, 4-({2-[4-(2-Cyano-5-methylphenyl)-5-methoxy-2-oxopyridin-1(2H)-yl]-4-methoxybutanoyl}amino)-2-fluorobenzamide], the IC50 is 25 nM on human plasma kallikrein and 27 nM against human factor XIa.
The corresponding values for `COc1cn(C(Cc2ccccn2)C(=O)Nc2ccc(C(N)=O)c(F)c2)c(=O)cc1-c1cc(Cl)ccc1C#N` (single isomer, unassigned) [Example 28, 4-({2-[4-(5-Chloro-2-cyanophenyl)-5-methoxy-2-oxopyridin-1(2H)-yl]-3-(pyridin-2-yl)propanoyl}amino)-2-fluorobenzamide] are 4.8 nM and 6.6 nM.
Consider `COc1cn(C(Cc2ccncc2)C(=O)Nc2ccc(C(N)=O)c(F)c2)c(=O)cc1-c1cc(Cl)ccc1C#N` (single isomer, unassigned) [Example 29, 4-({2-[4-(5-Chloro-2-cyanophenyl)-5-methoxy-2-oxopyridin-1(2H)-yl]-3-(pyridin-4-yl)propanoyl}amino)-2-fluorobenzamide], for which the IC50 stood at 2.7 nM on human plasma kallikrein and 5.1 nM against human factor XIa.
On the same counts, the results for `COc1cn(C(Cc2cnco2)C(=O)Nc2ccc(C(N)=O)c(F)c2)c(=O)cc1-c1cc(Cl)ccc1C#N` (single isomer, unassigned) [Example 45, 4-({2-[4-(5-Chloro-2-cyanophenyl)-5-methoxy-2-oxopyridin-1(2H)-yl]-3-(1,3-oxazol-5-yl)propanoyl}amino)-2-fluorobenzamide] are 4 nM and 6.4 nM.
The corresponding values for `N#Cc1ccc(Cl)cc1-c1cc(=O)n(C(Cc2cnco2)C(=O)Nc2ccc(C(N)=O)c(F)c2)cc1OC(F)F` (stereo not drawn) [Example 1] are 490 nM and 240 nM.
The corresponding values for `N#Cc1ccc(Cl)cc1-c1cc(=O)n(C(Cc2cocn2)C(=O)Nc2ccc(C(N)=O)c(F)c2)cc1Cl` (stereo not drawn) [Example 2] are 260 nM and 190 nM.
`COc1cn(C(Cc2cocn2)C(=O)Nc2ccc(C(N)=O)c(F)c2)c(=O)cc1-c1cc(Cl)ccc1C#N` (stereo not drawn) [Example 3]: the IC50 at human plasma kallikrein was 33 nM; at human factor XIa, 43 nM.
Turning to `N#Cc1ccc(Cl)cc1-c1cc(=O)n(C(Cc2cnco2)C(=O)Nc2ccc(C(N)=O)c(F)c2)cc1Cl` (stereo not drawn) [Example 4], the half-maximal inhibitory concentration (IC50) at human plasma kallikrein is 140 nM; against human factor XIa, 52 nM.
In the case of `COc1cn(C(Cc2cnco2)C(=O)Nc2ccc(C(N)=O)c(F)c2)c(=O)cc1-c1cc(Cl)ccc1C#N` (stereo not drawn) [Example 5], the IC50 at human plasma kallikrein and against human factor XIa was 14 nM each time.
Turning to `COCCC(C(=O)Nc1ccc(C(N)=O)c(F)c1)n1cc(Cl)c(-c2cc(Cl)ccc2C#N)cc1=O` (stereo not drawn) [Example 6], the IC50 on human plasma kallikrein was 110 nM; on human factor XIa, 47 nM.
For the compound `CCC(C(=O)Nc1ccc(C(N)=O)c(F)c1)n1cc(OC)c(-c2cc(Cl)ccc2C#N)cc1=O` (stereo not drawn) [Example 7], the IC50 amounted to 36 nM at human plasma kallikrein and 25 nM against human factor XIa.
On the same counts, the results for `CCC(C(=O)Nc1ccc(C(=O)NC)c(F)c1)n1cc(OC)c(-c2cc(Cl)ccc2C#N)cc1=O` (stereo not drawn) [Example 8] are 30 nM and 12 nM.
The corresponding values for `COc1cn(C(Cc2cccnc2)C(=O)Nc2ccc(C(N)=O)c(F)c2)c(=O)cc1-c1cc(Cl)ccc1C#N` (stereo not drawn) [Example 9] are 6 nM and 11 nM.
For the compound `COc1cn(C(Cc2ccncc2)C(=O)Nc2ccc(C(N)=O)c(F)c2)c(=O)cc1-c1cc(Cl)ccc1C#N` (stereo not drawn) [Example 10], the results for the IC50 at human plasma kallikrein and at human factor XIa were 7 nM and 9 nM, respectively.
On the same counts, the results for `N#Cc1ccc(Cl)cc1-c1cc(=O)n(C(Cc2ccccn2)C(=O)Nc2ccc(C(N)=O)c(F)c2)cc1OC(F)F` (stereo not drawn) [Example 11] are 490 nM and 160 nM.
On the same counts, the results for `COc1cn(C(Cc2ccccn2)C(=O)Nc2ccc(C(N)=O)c(F)c2)c(=O)cc1-c1cc(Cl)ccc1C#N` (stereo not drawn) [Example 12] are 10 nM and 11 nM.
